# Measurements from PubChem BioAssay (NCI).
#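 48-hour exposure; five concentrations; linearly interpolated endpoints. TGI: concentration producing complete growth inhibition.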
# How the values were obtained:
# Experiment in all cases: inhibition of tumour cell growth, NCI panel, 48 h
# PC-3 prostate = tested on: PC-3 prostate
# U251 CNS = tested on: U251 CNS
# OVCAR-5 ovarian = tested on: OVCAR-5 ovarian
# HL-60(TB) leukemia = tested on: HL-60(TB) leukemia
# K-562 leukemia = tested on: K-562 leukemia
# 786-0 renal = tested on: 786-0 renal
# HOP-62 NSCLC = tested on: HOP-62 NSCLC
# SF-295 CNS = tested on: SF-295 CNS
# KM12 colon = tested on: KM12 colon
# UACC-257 melanoma = tested on: UACC-257 melanoma
# MDA-N = tested on: MDA-N
# EKVX NSCLC = tested on: EKVX NSCLC
# MOLT-4 leukemia = tested on: MOLT-4 leukemia
# SNB-19 CNS = tested on: SNB-19 CNS
# OVCAR-4 ovarian = tested on: OVCAR-4 ovarian
# M14 melanoma = tested on: M14 melanoma
# LOX IMVI melanoma = tested on: LOX IMVI melanoma
# UO-31 renal = tested on: UO-31 renal
# ACHN renal = tested on: ACHN renal
# RXF 393 renal = tested on: RXF 393 renal
# OVCAR-3 ovarian = tested on: OVCAR-3 ovarian
# TK-10 renal = tested on: TK-10 renal
# HCC-2998 colon = tested on: HCC-2998 colon
# NCI-H23 lung = tested on: NCI-H23 lung
# SF-268 CNS = tested on: SF-268 CNS
# DU-145 prostate = tested on: DU-145 prostate
# HT29 colon = tested on: HT29 colon
# BT-549 breast = tested on: BT-549 breast
# A498 renal = tested on: A498 renal
# SNB-75 CNS = tested on: SNB-75 CNS
# UACC-62 melanoma = tested on: UACC-62 melanoma
# MCF7 breast = tested on: MCF7 breast
# MDA-MB-231 breast = tested on: MDA-MB-231 breast
# SW-620 colon = tested on: SW-620 colon
# CCRF-CEM leukemia = tested on: CCRF-CEM leukemia
# SN12C renal = tested on: SN12C renal
# NCI-H522 lung = tested on: NCI-H522 lung
# SK-MEL-5 melanoma = tested on: SK-MEL-5 melanoma
# NCI/ADR-RES ovarian = tested on: NCI/ADR-RES ovarian
# HCT-116 colon = tested on: HCT-116 colon
# T-47D breast = tested on: T-47D breast
# SR leukemia = tested on: SR leukemia
# IGROV1 ovarian = tested on: IGROV1 ovarian
# MDA-MB-435 = tested on: MDA-MB-435
# CAKI-1 renal = tested on: CAKI-1 renal
# SK-MEL-2 melanoma = tested on: SK-MEL-2 melanoma
# MALME-3M melanoma = tested on: MALME-3M melanoma
# HCT-15 colon = tested on: HCT-15 colon
# HOP-92 NSCLC = tested on: HOP-92 NSCLC
# SF-539 CNS = tested on: SF-539 CNS
# A549 NSCLC = tested on: A549 NSCLC
# RPMI-8226 leukemia = tested on: RPMI-8226 leukemia
# HS 578T breast = tested on: HS 578T breast
# COLO 205 colon = tested on: COLO 205 colon
# OVCAR-8 ovarian = tested on: OVCAR-8 ovarian
# SK-MEL-28 melanoma = tested on: SK-MEL-28 melanoma
# NCI-H460 lung = tested on: NCI-H460 lung
# SK-OV-3 ovarian = tested on: SK-OV-3 ovarian
# NCI-H226 lung = tested on: NCI-H226 lung
structure (smiles),measurement,setting,value
NC(=O)SCC(=O)Nc1ccc2cccc3c2c1CC3,TGI,PC-3 prostate,> 100 µM
same,TGI,U251 CNS,20.5 µM
same,TGI,OVCAR-5 ovarian,52 µM
same,TGI,HL-60(TB) leukemia,28.3 µM
same,TGI,K-562 leukemia,> 100 µM
same,TGI,786-0 renal,42.8 µM
same,TGI,HOP-62 NSCLC,> 100 µM
same,TGI,SF-295 CNS,> 100 µM
same,TGI,KM12 colon,> 100 µM
same,TGI,UACC-257 melanoma,51.3 µM
same,TGI,MDA-N,47.2 µM
same,TGI,EKVX NSCLC,> 100 µM
same,TGI,MOLT-4 leukemia,63.1 µM
same,TGI,SNB-19 CNS,> 100 µM
same,TGI,OVCAR-4 ovarian,56.8 µM
same,TGI,M14 melanoma,> 100 µM
same,TGI,LOX IMVI melanoma,21.6 µM
same,TGI,UO-31 renal,> 100 µM
same,TGI,ACHN renal,44.7 µM
same,TGI,RXF 393 renal,54.4 µM
same,TGI,OVCAR-3 ovarian,> 100 µM
same,TGI,TK-10 renal,69.8 µM
same,TGI,HCC-2998 colon,> 100 µM
same,TGI,NCI-H23 lung,59.9 µM
same,TGI,SF-268 CNS,44.8 µM
same,TGI,DU-145 prostate,> 100 µM
same,TGI,HT29 colon,88.7 µM
same,TGI,BT-549 breast,34.3 µM
same,TGI,A498 renal,> 100 µM
same,TGI,SNB-75 CNS,> 100 µM
same,TGI,UACC-62 melanoma,37.5 µM
same,TGI,MCF7 breast,29.6 µM
same,TGI,MDA-MB-231 breast,27.4 µM
same,TGI,SW-620 colon,24.6 µM
same,TGI,CCRF-CEM leukemia,> 100 µM
same,TGI,SN12C renal,45.6 µM
same,TGI,NCI-H522 lung,> 100 µM
same,TGI,SK-MEL-5 melanoma,75.9 µM
same,TGI,NCI/ADR-RES ovarian,> 100 µM
same,TGI,HCT-116 colon,36 µM
same,TGI,T-47D breast,95.9 µM
same,TGI,SR leukemia,32.9 µM
same,TGI,IGROV1 ovarian,> 100 µM
same,TGI,MDA-MB-435,33.6 µM
same,TGI,CAKI-1 renal,91.9 µM
same,TGI,SK-MEL-2 melanoma,47.1 µM
same,TGI,MALME-3M melanoma,> 100 µM
same,TGI,HCT-15 colon,> 100 µM
same,TGI,HOP-92 NSCLC,4.61 µM
same,TGI,SF-539 CNS,34.6 µM
same,TGI,A549 NSCLC,> 100 µM
same,TGI,RPMI-8226 leukemia,49.2 µM
same,TGI,HS 578T breast,> 100 µM
same,TGI,COLO 205 colon,> 100 µM
same,TGI,OVCAR-8 ovarian,> 100 µM
COc1ccc(C2N(c3ccc(F)c([N+](=O)[O-])c3)C(=O)N3C(c4ccc(OC)cc4)N(c4ccc(F)c([N+](=O)[O-])c4)C(=O)N23)cc1 (configuration not stated),TGI,PC-3 prostate,> 100 µM
same,TGI,U251 CNS,> 100 µM
same,TGI,OVCAR-5 ovarian,> 100 µM
same,TGI,HL-60(TB) leukemia,> 100 µM
same,TGI,786-0 renal,> 100 µM
same,TGI,HOP-62 NSCLC,> 100 µM
same,TGI,SF-295 CNS,> 100 µM
same,TGI,KM12 colon,> 100 µM
same,TGI,UACC-257 melanoma,> 100 µM
same,TGI,MDA-N,> 100 µM
same,TGI,EKVX NSCLC,> 100 µM
same,TGI,SNB-19 CNS,> 100 µM
same,TGI,OVCAR-4 ovarian,> 100 µM
same,TGI,M14 melanoma,> 100 µM
same,TGI,LOX IMVI melanoma,> 100 µM
same,TGI,UO-31 renal,> 100 µM
same,TGI,ACHN renal,> 100 µM
same,TGI,RXF 393 renal,> 100 µM
same,TGI,OVCAR-3 ovarian,> 100 µM
same,TGI,TK-10 renal,> 100 µM
same,TGI,HCC-2998 colon,> 100 µM
same,TGI,NCI-H23 lung,> 100 µM
same,TGI,SF-268 CNS,> 100 µM
same,TGI,DU-145 prostate,> 100 µM
same,TGI,HT29 colon,> 100 µM
same,TGI,BT-549 breast,> 100 µM
same,TGI,A498 renal,> 100 µM
same,TGI,SK-MEL-28 melanoma,> 100 µM
same,TGI,SNB-75 CNS,> 100 µM
same,TGI,UACC-62 melanoma,> 100 µM
same,TGI,MCF7 breast,> 100 µM
same,TGI,MDA-MB-231 breast,> 100 µM
same,TGI,SW-620 colon,> 100 µM
same,TGI,CCRF-CEM leukemia,> 100 µM
same,TGI,SN12C renal,> 100 µM
same,TGI,NCI-H522 lung,> 100 µM
same,TGI,SK-MEL-5 melanoma,> 100 µM
same,TGI,NCI/ADR-RES ovarian,> 100 µM
same,TGI,HCT-116 colon,> 100 µM
same,TGI,T-47D breast,> 100 µM
same,TGI,SR leukemia,> 100 µM
same,TGI,IGROV1 ovarian,> 100 µM
same,TGI,MDA-MB-435,> 100 µM
same,TGI,CAKI-1 renal,> 100 µM
same,TGI,SK-MEL-2 melanoma,> 100 µM
same,TGI,MALME-3M melanoma,> 100 µM
same,TGI,HCT-15 colon,> 100 µM
same,TGI,HOP-92 NSCLC,> 100 µM
same,TGI,SF-539 CNS,> 100 µM
same,TGI,A549 NSCLC,> 100 µM
same,TGI,RPMI-8226 leukemia,> 100 µM
same,TGI,NCI-H460 lung,> 100 µM
same,TGI,HS 578T breast,> 100 µM
same,TGI,COLO 205 colon,> 100 µM
same,TGI,OVCAR-8 ovarian,> 100 µM
Cc1nnc(N)nc1C/C=C/C(Sc1ccc(Cl)cc1)c1ccccc1 (configuration not stated),TGI,PC-3 prostate,14.6 µM
same,TGI,U251 CNS,26.9 µM
same,TGI,OVCAR-5 ovarian,23 µM
same,TGI,HL-60(TB) leukemia,6.13 µM
same,TGI,K-562 leukemia,> 100 µM
same,TGI,786-0 renal,11.4 µM
same,TGI,HOP-62 NSCLC,19.6 µM
same,TGI,SF-295 CNS,10.9 µM
same,TGI,KM12 colon,15.7 µM
same,TGI,UACC-257 melanoma,17 µM
same,TGI,MDA-N,> 95.9 µM
same,TGI,EKVX NSCLC,16.1 µM
same,TGI,MOLT-4 leukemia,> 32 µM
same,TGI,SNB-19 CNS,22.7 µM
same,TGI,OVCAR-4 ovarian,19.6 µM
same,TGI,M14 melanoma,20.7 µM
same,TGI,LOX IMVI melanoma,7.7 µM
same,TGI,UO-31 renal,12.4 µM
same,TGI,ACHN renal,18.2 µM
same,TGI,RXF 393 renal,16.2 µM
same,TGI,TK-10 renal,21.9 µM
same,TGI,HCC-2998 colon,23.4 µM
same,TGI,NCI-H23 lung,22.2 µM
same,TGI,SF-268 CNS,21.6 µM
same,TGI,DU-145 prostate,> 45.4 µM
same,TGI,HT29 colon,25.6 µM
same,TGI,BT-549 breast,27.7 µM
same,TGI,A498 renal,23.9 µM
same,TGI,SK-MEL-28 melanoma,> 38.1 µM
same,TGI,SNB-75 CNS,16.5 µM
same,TGI,UACC-62 melanoma,10.1 µM
same,TGI,MCF7 breast,> 34.7 µM
same,TGI,MDA-MB-231 breast,> 33.1 µM
same,TGI,SW-620 colon,> 39.7 µM
same,TGI,CCRF-CEM leukemia,3.23 µM
same,TGI,SN12C renal,> 48.1 µM
same,TGI,NCI-H522 lung,3.69 µM
same,TGI,SK-MEL-5 melanoma,> 100 µM
same,TGI,NCI/ADR-RES ovarian,> 34.2 µM
same,TGI,HCT-116 colon,> 27.8 µM
same,TGI,T-47D breast,> 48.8 µM
same,TGI,SR leukemia,> 100 µM
same,TGI,IGROV1 ovarian,5.37 µM
same,TGI,MDA-MB-435,14.9 µM
same,TGI,CAKI-1 renal,> 39.5 µM
same,TGI,SK-MEL-2 melanoma,21 µM
same,TGI,SK-OV-3 ovarian,24.4 µM
same,TGI,MALME-3M melanoma,14.6 µM
same,TGI,HCT-15 colon,15.9 µM
same,TGI,HOP-92 NSCLC,23.7 µM
same,TGI,A549 NSCLC,> 64.7 µM
same,TGI,RPMI-8226 leukemia,> 42.9 µM
same,TGI,NCI-H460 lung,17.3 µM
same,TGI,HS 578T breast,24.6 µM
same,TGI,COLO 205 colon,> 41.9 µM
same,TGI,OVCAR-8 ovarian,34.8 µM
same,TGI,NCI-H226 lung,4.64 µM
